# Results as given in patent US10617693B2, “Methods of treating and/or preventing actinic keratosis” (Athenex, Inc., priority 2017, dated 2020).
# Test system: subjects with AK on the face or scalp
# Test: Phase 2a study KX01-AK-002: local skin reactions (grade 0 not present to 4 worst) and adverse events, 0.5 mg KX-01 on 25 cm^2
# Assay type: in vivo, human
# Excerpt: An ongoing Phase 2a, open-label, multicenter, activity and safety study of KX-01 administered topically in subjects with AK on the face or scalp is described herein. […] Secondary objectives are to assess the activity of KX-01 administered topically during Days 1-57 based on reduction of AK lesion counts from baseline, assess the safety and tolerability and pharmacokinetics, and contrast the dose regimens (5-day treatment with 3-day treatment) in terms of activity and safety in subjects with AK on the face or scalp. This uncontrolled, nonrandomized trial is being conducted at 16 investigational sites in the United States. Enrollment is sequential for 2 cohorts of approximately 80 subjects each. Enrollment is closed for Cohort 1 and ongoing for Cohort 2. The two treatment cohorts are summarized below: • Cohort 1: 0.5 mg KX-01 administered topically to a contiguous treatment area of 25 cm^2 with 4-8 clinically typical AK lesions for 5 consecutive days • Cohort 2: 0.5 mg KX-01 administered topically to a contiguous treatment area of 25 cm^2 with 4-8 clinically typical AK lesions for 3 consecutive days
# 0.5 mg KX-01 is administered topically to an area of 25 cm^2 on the face or scalp by site staff on treatment days. […] AK lesion counts are recorded at baseline, days 8, 15, 29, and 57. […] Standardized photography of treatment area is performed at baseline, day 8 and day 57. Plasma samples are being collected at preplanned time points on days 1 and 5 for Cohort 1, and on days 1 and 3 for Cohort 2.
# Absence or presence of hyperpigmentation, hypopigmentation and scarring are also assessed. Application site reactions not classified as LSRs are reported as AEs. […] LSRs and AEs are reported separately. All LSRs, pigmentation, and scarring in the treatment area will be followed to resolution or stabilization.
# The range of possible composite scores is 0-24.
# The Phase 2a trial described in Example 2a was completed with 84 eligible subjects enrolled in each of two cohorts: one cohort was subjected to the treatment for 5 consecutive days, and the other cohort was subjected to the treatment for 3 consecutive days. The results are described below and in FIG. 5.
smiles,measurement,setting,value
O=C(Cc1ccc(-c2ccc(OCCN3CCOCC3)cc2)cn1)NCc1ccccc1 [KX-01],"Crusting maximal post-baseline grade 0, subjects (%)","3-day, N = 84",58 (69%)
same,"Crusting maximal post-baseline grade 1, subjects (%)","3-day, N = 84",16 (19%)
same,"Crusting maximal post-baseline grade 2, subjects (%)","3-day, N = 84",9 (11%)
same,"Crusting maximal post-baseline grade 3, subjects (%)","3-day, N = 84",1 (1%)
same,"Crusting maximal post-baseline grade 4, subjects (%)","3-day, N = 84",0 (0%)
same,"Erosion/Ulceration maximal post-baseline grade 0, subjects (%)","3-day, N = 84",79 (94%)
same,"Erosion/Ulceration maximal post-baseline grade 1, subjects (%)","3-day, N = 84",5 (6%)
same,"Erosion/Ulceration maximal post-baseline grade 2, subjects (%)","3-day, N = 84",0 (0%)
same,"Erosion/Ulceration maximal post-baseline grade 3, subjects (%)","3-day, N = 84",0 (0%)
same,"Erosion/Ulceration maximal post-baseline grade 4, subjects (%)","3-day, N = 84",0 (0%)
same,"Erythema maximal post-baseline grade 0, subjects (%)","3-day, N = 84",30 (36%)
same,"Erythema maximal post-baseline grade 1, subjects (%)","3-day, N = 84",22 (26%)
same,"Erythema maximal post-baseline grade 2, subjects (%)","3-day, N = 84",26 (31%)
same,"Erythema maximal post-baseline grade 3, subjects (%)","3-day, N = 84",6 (7%)
same,"Erythema maximal post-baseline grade 4, subjects (%)","3-day, N = 84",0 (0%)
same,"Flaking/Scaling maximal post-baseline grade 0, subjects (%)","3-day, N = 84",39 (46%)
same,"Flaking/Scaling maximal post-baseline grade 1, subjects (%)","3-day, N = 84",18 (21%)
same,"Flaking/Scaling maximal post-baseline grade 2, subjects (%)","3-day, N = 84",19 (23%)
same,"Flaking/Scaling maximal post-baseline grade 3, subjects (%)","3-day, N = 84",8 (10%)
same,"Flaking/Scaling maximal post-baseline grade 4, subjects (%)","3-day, N = 84",0 (0%)
same,"Swelling maximal post-baseline grade 0, subjects (%)","3-day, N = 84",76 (90%)
same,"Swelling maximal post-baseline grade 1, subjects (%)","3-day, N = 84",8 (10%)
same,"Swelling maximal post-baseline grade 2, subjects (%)","3-day, N = 84",0 (0%)
same,"Swelling maximal post-baseline grade 3, subjects (%)","3-day, N = 84",0 (0%)
same,"Swelling maximal post-baseline grade 4, subjects (%)","3-day, N = 84",0 (0%)
same,"Vesiculation/Pustulation maximal post-baseline grade 0, subjects (%)","3-day, N = 84",83 (99%)
same,"Vesiculation/Pustulation maximal post-baseline grade 1, subjects (%)","3-day, N = 84",0 (0%)
same,"Vesiculation/Pustulation maximal post-baseline grade 2, subjects (%)","3-day, N = 84",1 (1%)
same,"Vesiculation/Pustulation maximal post-baseline grade 3, subjects (%)","3-day, N = 84",0 (0%)
same,"Vesiculation/Pustulation maximal post-baseline grade 4, subjects (%)","3-day, N = 84",0 (0%)
same,Local safety profile compared to Picato,"5-day treatment, cross-study",more benign local safety profile
same,"Crusting maximal post-baseline grade 0, subjects (%)","5-day, N = 84",51 (61%)
same,"Crusting maximal post-baseline grade 1, subjects (%)","5-day, N = 84",25 (30%)
same,"Crusting maximal post-baseline grade 2, subjects (%)","5-day, N = 84",8 (10%)
same,"Crusting maximal post-baseline grade 3, subjects (%)","5-day, N = 84",0 (0%)
same,"Crusting maximal post-baseline grade 4, subjects (%)","5-day, N = 84",0 (0%)
same,"Erosion/Ulceration maximal post-baseline grade 0, subjects (%)","5-day, N = 84",71 (85%)
same,"Erosion/Ulceration maximal post-baseline grade 1, subjects (%)","5-day, N = 84",12 (14%)
same,"Erosion/Ulceration maximal post-baseline grade 2, subjects (%)","5-day, N = 84",1 (1%)
same,"Erosion/Ulceration maximal post-baseline grade 3, subjects (%)","5-day, N = 84",0 (0%)
same,"Erosion/Ulceration maximal post-baseline grade 4, subjects (%)","5-day, N = 84",0 (0%)
same,"Erythema maximal post-baseline grade 0, subjects (%)","5-day, N = 84",15 (18%)
same,"Erythema maximal post-baseline grade 1, subjects (%)","5-day, N = 84",16 (19%)
same,"Erythema maximal post-baseline grade 2, subjects (%)","5-day, N = 84",35 (42%)
same,"Erythema maximal post-baseline grade 3, subjects (%)","5-day, N = 84",17 (20%)
same,"Erythema maximal post-baseline grade 4, subjects (%)","5-day, N = 84",1 (1%)
same,"Flaking/Scaling maximal post-baseline grade 0, subjects (%)","5-day, N = 84",33 (39%)
same,"Flaking/Scaling maximal post-baseline grade 1, subjects (%)","5-day, N = 84",10 (12%)
same,"Flaking/Scaling maximal post-baseline grade 2, subjects (%)","5-day, N = 84",24 (29%)
same,"Flaking/Scaling maximal post-baseline grade 3, subjects (%)","5-day, N = 84",16 (19%)
same,"Flaking/Scaling maximal post-baseline grade 4, subjects (%)","5-day, N = 84",1 (1%)
same,"Swelling maximal post-baseline grade 0, subjects (%)","5-day, N = 84",66 (79%)
same,"Swelling maximal post-baseline grade 1, subjects (%)","5-day, N = 84",16 (19%)
same,"Swelling maximal post-baseline grade 2, subjects (%)","5-day, N = 84",1 (1%)
same,"Swelling maximal post-baseline grade 3, subjects (%)","5-day, N = 84",1 (1%)
same,"Swelling maximal post-baseline grade 4, subjects (%)","5-day, N = 84",0 (0%)
same,"Vesiculation/Pustulation maximal post-baseline grade 0, subjects (%)","5-day, N = 84",80 (95%)
same,"Vesiculation/Pustulation maximal post-baseline grade 1, subjects (%)","5-day, N = 84",4 (5%)
same,"Vesiculation/Pustulation maximal post-baseline grade 2, subjects (%)","5-day, N = 84",0 (0%)
same,"Vesiculation/Pustulation maximal post-baseline grade 3, subjects (%)","5-day, N = 84",0 (0%)
same,"Vesiculation/Pustulation maximal post-baseline grade 4, subjects (%)","5-day, N = 84",0 (0%)
same,"Crusting maximal post-baseline grade 0, subjects (%)","5-day, interim N = 67",41 (61%)
same,"Crusting maximal post-baseline grade 1, subjects (%)","5-day, interim N = 67",20 (30%)
same,"Crusting maximal post-baseline grade 2, subjects (%)","5-day, interim N = 67",6 (9%)
same,"Crusting maximal post-baseline grade 3, subjects (%)","5-day, interim N = 67",0 (0%)
same,"Crusting maximal post-baseline grade 4, subjects (%)","5-day, interim N = 67",0 (0%)
same,"Erosion/Ulceration maximal post-baseline grade 0, subjects (%)","5-day, interim N = 67",57 (85%)
same,"Erosion/Ulceration maximal post-baseline grade 1, subjects (%)","5-day, interim N = 67",9 (13%)
same,"Erosion/Ulceration maximal post-baseline grade 2, subjects (%)","5-day, interim N = 67",1 (1%)
same,"Erosion/Ulceration maximal post-baseline grade 3, subjects (%)","5-day, interim N = 67",0 (0%)
same,"Erosion/Ulceration maximal post-baseline grade 4, subjects (%)","5-day, interim N = 67",0 (0%)
same,"Erythema maximal post-baseline grade 0, subjects (%)","5-day, interim N = 67",7 (10%)
same,"Erythema maximal post-baseline grade 1, subjects (%)","5-day, interim N = 67",16 (24%)
same,"Erythema maximal post-baseline grade 2, subjects (%)","5-day, interim N = 67",32 (48%)
same,"Erythema maximal post-baseline grade 3, subjects (%)","5-day, interim N = 67",12 (18%)
same,"Erythema maximal post-baseline grade 4, subjects (%)","5-day, interim N = 67",0 (0%)
same,"Flaking/Scaling maximal post-baseline grade 0, subjects (%)","5-day, interim N = 67",20 (30%)
same,"Flaking/Scaling maximal post-baseline grade 1, subjects (%)","5-day, interim N = 67",14 (21%)
same,"Flaking/Scaling maximal post-baseline grade 2, subjects (%)","5-day, interim N = 67",20 (30%)
same,"Flaking/Scaling maximal post-baseline grade 3, subjects (%)","5-day, interim N = 67",13 (19%)
same,"Flaking/Scaling maximal post-baseline grade 4, subjects (%)","5-day, interim N = 67",0 (0%)
same,"Swelling maximal post-baseline grade 0, subjects (%)","5-day, interim N = 67",53 (79%)
same,"Swelling maximal post-baseline grade 1, subjects (%)","5-day, interim N = 67",12 (18%)
same,"Swelling maximal post-baseline grade 2, subjects (%)","5-day, interim N = 67",1 (1%)
same,"Swelling maximal post-baseline grade 3, subjects (%)","5-day, interim N = 67",1 (1%)
same,"Swelling maximal post-baseline grade 4, subjects (%)","5-day, interim N = 67",0 (0%)
same,"Vesiculation/Pustulation maximal post-baseline grade 0, subjects (%)","5-day, interim N = 67",64 (96%)
same,"Vesiculation/Pustulation maximal post-baseline grade 1, subjects (%)","5-day, interim N = 67",3 (4%)
same,"Vesiculation/Pustulation maximal post-baseline grade 2, subjects (%)","5-day, interim N = 67",0 (0%)
same,"Vesiculation/Pustulation maximal post-baseline grade 3, subjects (%)","5-day, interim N = 67",0 (0%)
same,"Vesiculation/Pustulation maximal post-baseline grade 4, subjects (%)","5-day, interim N = 67",0 (0%)
same,Day from which LSRs were generally observable,Cohort 1 (5-day),3 days
same,Subjects with erosion/ulceration,"Cohort 1 (5-day), 67 subjects with day 57 visit",9
